Measurements: PMC6017062, “Probing the Inhibitor versus Chaperone Properties of sp^2-Iminosugars towards Human β-Glucocerebrosidase: A Picomolar Chaperone for Gaucher Disease” (Molecules : A Journal of Synthetic Chemistry and Natural …, 2018)
Read-outs that look alike come from different tables or passages of the source.

Experiments:
[1] = target: T1, α-glucosidase maltase (yeast maltase; α-Glcase1) (Saccharomyces cerevisiae, UniProt P53341); test: Commercial glycosidase inhibition: maltase (yeast maltase; α-Glcase1); assay type: biochemical; settings: mean ± SD, three determinations; competitive; n.i. = no inhibition detected at 1 mM
T1 construct: purchased
T1 sequence (P53341 whole entry): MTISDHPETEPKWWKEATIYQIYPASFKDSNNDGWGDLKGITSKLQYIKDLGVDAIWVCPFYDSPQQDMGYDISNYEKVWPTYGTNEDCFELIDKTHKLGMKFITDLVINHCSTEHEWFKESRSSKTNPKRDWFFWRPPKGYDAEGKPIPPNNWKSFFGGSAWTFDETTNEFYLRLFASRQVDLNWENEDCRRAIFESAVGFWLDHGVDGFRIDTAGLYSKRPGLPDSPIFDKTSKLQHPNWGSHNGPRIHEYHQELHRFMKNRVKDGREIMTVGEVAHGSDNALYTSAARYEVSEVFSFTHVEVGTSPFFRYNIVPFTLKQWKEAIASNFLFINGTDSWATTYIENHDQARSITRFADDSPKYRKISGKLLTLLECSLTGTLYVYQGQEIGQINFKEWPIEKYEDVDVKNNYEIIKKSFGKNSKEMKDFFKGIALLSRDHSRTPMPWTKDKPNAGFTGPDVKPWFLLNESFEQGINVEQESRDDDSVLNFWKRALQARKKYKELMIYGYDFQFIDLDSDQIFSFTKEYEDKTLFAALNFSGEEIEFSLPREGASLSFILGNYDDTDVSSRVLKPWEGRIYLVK
Description: (§1) We first evaluated the inhibitory properties of the new nonreducing mono- and bicyclic sp^2-iminosugars 4–15 against a panel of commercial glycosidases that included the α-glucosidases maltase (yeast maltase; α-Glcase1) and isomaltase (α-Glcase2) from Saccharomyces cerevisiae and amyloglucosidase (α-Glcase3) from Aspergillus niger, the β-glucosidases from almonds (β-Glcase1) and bovine liver (β-Glcase2), the α-galactosidase from green coffee beans (α-Galase), the β-galactosidase from Escherichia coli (β-Galase), and the α-mannosidase from Jack bean (α-Manase).
(§2) Inhibition constant (Ki) values were determined by spectrophotometrically measuring the residual hydrolytic activities of the glycosidases against the respective o- (for β-galactosidase from E. coli) or p-nitrophenyl α- or β-D-glycopyranoside (for other glycosidases) in the presence of the iminosugars. Each assay was performed in phosphate buffer or phosphate-citrate buffer (for α- or β-mannosidase and amyloglucosidase) at the optimal pH for the enzymes. The reactions were initiated by addition of the enzyme to a solution of the substrate in the absence or presence of various inhibitor concentrations. The mixture was incubated for 10–30 min at 37 °C or 55 °C (for amyloglucosidase) and the reaction was quenched by addition of 1 M Na2CO3. Reaction times were appropriate to obtain 10–20% conversion of the substrate in order to achieve linear rates. The absorbance of the resulting mixture was determined at 405 nm. Approximate value of Ki was determined from the slope of Dixon plots using a fixed concentration of substrate (around the Km value for the different glycosidases) and various concentrations of inhibitor. Full Ki determinations and enzyme inhibition mode were determined from the slope of Lineweaver–Burk plots and double reciprocal analysis.

[2] = target: T2, isomaltase (α-Glcase2) (Saccharomyces cerevisiae, UniProt P53051); test: Commercial glycosidase inhibition: isomaltase (α-Glcase2); assay type: biochemical; settings: mean ± SD, three determinations; competitive; n.i. = no inhibition detected at 1 mM
T2 construct: purchased
T2 sequence (P53051 whole entry): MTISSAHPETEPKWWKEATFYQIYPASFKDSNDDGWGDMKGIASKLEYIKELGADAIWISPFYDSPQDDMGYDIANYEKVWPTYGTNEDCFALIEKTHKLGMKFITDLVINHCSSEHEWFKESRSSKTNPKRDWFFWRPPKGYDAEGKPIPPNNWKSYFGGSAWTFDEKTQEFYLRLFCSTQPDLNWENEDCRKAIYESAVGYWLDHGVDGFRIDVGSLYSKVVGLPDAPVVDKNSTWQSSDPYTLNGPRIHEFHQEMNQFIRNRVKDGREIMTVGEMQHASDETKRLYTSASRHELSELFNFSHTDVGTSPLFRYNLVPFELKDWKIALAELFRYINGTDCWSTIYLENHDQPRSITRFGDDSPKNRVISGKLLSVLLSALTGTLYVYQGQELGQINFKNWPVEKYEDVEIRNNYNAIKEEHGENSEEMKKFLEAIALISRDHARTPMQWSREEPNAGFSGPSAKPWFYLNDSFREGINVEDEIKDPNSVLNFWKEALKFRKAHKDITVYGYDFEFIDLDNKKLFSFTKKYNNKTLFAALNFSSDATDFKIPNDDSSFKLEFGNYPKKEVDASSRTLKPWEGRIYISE
Description: as §1, §2

[3] = target: T3, human β-glucocerebrosidase (GCase) (Homo sapiens, UniProt P04062, R534H); test: Purified recombinant human GCase inhibition in vitro; assay type: biochemical; settings: for Ki: purified recombinant enzyme (Cerezyme), 4-MU glucopyranoside substrate
T3 construct: purchased Genzyme (Genzyme Japan, Tokyo, Japan) / Sanofi Genzyme, Cambridge, MA, USA Cerezyme
T3 sequence (P04062 40-536 R534H): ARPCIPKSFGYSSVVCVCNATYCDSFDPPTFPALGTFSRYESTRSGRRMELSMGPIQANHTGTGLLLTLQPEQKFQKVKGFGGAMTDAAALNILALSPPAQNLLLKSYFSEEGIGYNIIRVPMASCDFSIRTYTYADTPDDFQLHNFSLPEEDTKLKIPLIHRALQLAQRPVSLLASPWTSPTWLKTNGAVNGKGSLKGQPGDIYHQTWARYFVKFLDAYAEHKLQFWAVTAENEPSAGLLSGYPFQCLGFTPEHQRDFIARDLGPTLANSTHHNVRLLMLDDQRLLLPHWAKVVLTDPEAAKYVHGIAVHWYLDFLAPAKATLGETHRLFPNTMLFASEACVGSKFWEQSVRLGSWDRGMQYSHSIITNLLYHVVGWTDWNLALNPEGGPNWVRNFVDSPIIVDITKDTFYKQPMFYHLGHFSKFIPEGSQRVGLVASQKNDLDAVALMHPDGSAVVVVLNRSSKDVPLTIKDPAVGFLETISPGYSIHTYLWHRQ
Procedure: Comparative assessment of the inhibition abilities of 1–4 against human lysosomal glycosidases in cell lysates (in vitro enzyme assay; see Experimental Section) confirmed the selectivity pattern previously observed for the commercial enzymes: whereas GCase was responsive to μM concentrations of the sp^2-iminosugars, the activity of lysosomal α-glucosidase, α- and β-galactosidases, α- and β-mannosidases, and hexosaminidase was not affected at concentrations of up to 200 μM. The corresponding Ki values were determined at pH 7 and 5 using purified recombinant human GCase and 4-methylumbelliferone (4-MU)-conjugated […] as the substrate (Table 2).
GCase activities were determined as above using purified human GCase, obtained from Genzyme (Genzyme Japan, Tokyo, Japan) in 0.1 M citrate buffer at pH 5 or pH 7 and 4-methylumbelliferone (4-MU)-conjugated β-D-glucopyranoside as the substrate. The reactions were terminated by adding 0.2 mL of 0.2 M glycine sodium hydroxide buffer (pH 10.7). The liberated 4-methylumbelliferone was measured in a black-well plate with a Perkin Elmer Luminescence Spectrometer, Waltham, MA, USA (excitation wavelength: 340 nm; emission: 460 nm).

[4] = target: T4, amyloglucosidase (α-Glcase3) (Aspergillus niger, UniProt P69328); test: Commercial glycosidase inhibition: amyloglucosidase (α-Glcase3); assay type: biochemical; settings: mean ± SD, three determinations; competitive; n.i. = no inhibition detected at 1 mM
T4 construct: purchased
T4 sequence (P69328 25-640): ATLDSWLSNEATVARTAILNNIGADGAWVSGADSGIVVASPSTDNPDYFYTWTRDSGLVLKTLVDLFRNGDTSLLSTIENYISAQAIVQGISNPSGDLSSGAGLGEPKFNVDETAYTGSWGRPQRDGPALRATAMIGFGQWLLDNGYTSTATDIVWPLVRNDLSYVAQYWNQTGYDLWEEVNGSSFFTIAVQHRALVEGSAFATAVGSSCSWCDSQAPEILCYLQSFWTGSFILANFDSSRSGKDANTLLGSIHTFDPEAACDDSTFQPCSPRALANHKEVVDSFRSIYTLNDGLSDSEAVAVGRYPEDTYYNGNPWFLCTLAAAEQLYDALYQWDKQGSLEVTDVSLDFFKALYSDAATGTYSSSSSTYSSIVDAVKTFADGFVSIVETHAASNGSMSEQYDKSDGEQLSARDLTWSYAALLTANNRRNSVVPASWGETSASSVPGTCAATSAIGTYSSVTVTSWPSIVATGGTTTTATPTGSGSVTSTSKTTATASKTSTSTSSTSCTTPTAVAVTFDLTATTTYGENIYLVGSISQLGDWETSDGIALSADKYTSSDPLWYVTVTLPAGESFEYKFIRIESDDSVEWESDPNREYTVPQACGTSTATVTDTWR
Description: as §1, §2

[5] = target: T5, α-mannosidase from Jack bean (α-Manase) (Canavalia ensiformis, UniProt C0HJB3); test: Commercial glycosidase inhibition: α-mannosidase from Jack bean (α-Manase); assay type: biochemical; settings: mean ± SD, three determinations; competitive; n.i. = no inhibition detected at 1 mM
T5 construct: purchased
T5 sequence (C0HJB3 1-981): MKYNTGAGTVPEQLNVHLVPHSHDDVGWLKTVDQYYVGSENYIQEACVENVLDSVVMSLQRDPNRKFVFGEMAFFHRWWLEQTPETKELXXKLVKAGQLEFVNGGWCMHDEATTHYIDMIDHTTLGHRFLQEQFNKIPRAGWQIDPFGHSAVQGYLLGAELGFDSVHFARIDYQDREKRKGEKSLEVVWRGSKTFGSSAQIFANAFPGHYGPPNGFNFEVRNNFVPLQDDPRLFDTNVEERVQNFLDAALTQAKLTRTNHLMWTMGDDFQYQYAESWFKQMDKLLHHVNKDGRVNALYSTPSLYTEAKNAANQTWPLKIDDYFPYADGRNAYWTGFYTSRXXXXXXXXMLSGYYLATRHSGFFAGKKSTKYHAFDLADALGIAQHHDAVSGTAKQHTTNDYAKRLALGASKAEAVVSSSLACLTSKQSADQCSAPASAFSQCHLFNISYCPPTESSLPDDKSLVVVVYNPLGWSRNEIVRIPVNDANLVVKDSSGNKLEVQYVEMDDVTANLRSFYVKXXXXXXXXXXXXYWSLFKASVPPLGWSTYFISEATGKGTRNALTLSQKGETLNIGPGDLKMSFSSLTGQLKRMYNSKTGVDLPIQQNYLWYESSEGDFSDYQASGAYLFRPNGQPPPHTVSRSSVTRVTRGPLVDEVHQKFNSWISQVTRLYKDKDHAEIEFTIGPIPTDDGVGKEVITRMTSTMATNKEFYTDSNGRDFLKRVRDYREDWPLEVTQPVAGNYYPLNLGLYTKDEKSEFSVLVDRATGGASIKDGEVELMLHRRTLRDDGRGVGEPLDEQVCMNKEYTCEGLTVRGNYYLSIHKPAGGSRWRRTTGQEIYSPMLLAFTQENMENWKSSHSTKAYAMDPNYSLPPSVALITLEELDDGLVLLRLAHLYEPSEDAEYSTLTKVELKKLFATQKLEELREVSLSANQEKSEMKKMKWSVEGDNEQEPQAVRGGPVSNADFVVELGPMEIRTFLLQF
Description: as §1, §2

[6] = system: β-glucosidases (almonds/bovine enzymes); settings: 4 compared with its DIJ epimer 7
Description: as §1
Inhibition constant (Ki) values were determined by spectrophotometrically measuring the residual hydrolytic activities of the glycosidases against the respective o- (for β-galactosidase from E. coli) or p-nitrophenyl α- or β-D-glycopyranoside (for other glycosidases) in the presence of the iminosugars. […] The absorbance of the resulting mixture was determined at 405 nm. Approximate value of Ki was determined from the slope of Dixon plots using a fixed concentration of substrate (around the Km value for the different glycosidases) and various concentrations of inhibitor. Full Ki determinations and enzyme inhibition mode were determined from the slope of Lineweaver–Burk plots and double reciprocal analysis.

Q: Which results are given for `CCCCCCCCN=C1SCC2C(O)C(O)C(O)CN12` (stereo not drawn) [Compound 4, 1-Deoxy-6-thio-5-N,6-S-(N′-octyliminomethylidene)nojirimycin]?
A: Ki α-Glcase1 [1]: n.i. ^1; Ki α-Glcase2 [2]: n.i.; fold stronger GCase inhibition of nonreducing vs reducing partner ([3]; 3 vs 1, 4 vs 2): ~20 fold; fold enhancement of GCase inhibition potency upon replacement of O-6 by sulfur, pH 5 ([3]; pH 5, 2 vs 1, 4 vs 3): 107 fold; Ki ([3]; pH 5, read-out: Ki human GCase, pH 5): 0.059 ± 0.0035 µM; fold enhancement of GCase inhibition potency upon replacement of O-6 by sulfur, pH 7 ([3]; pH 7, 2 vs 1, 4 vs 3): 130 fold; Ki ([3]; pH 7, read-out: Ki human GCase, pH 7): 0.013 ± 0.0011 µM; Ki α-Glcase3 [4]: n.i.; Ki α-Manase [5]: n.i.; fold stronger inhibition potency towards the β-glucosidases [6]: 100 fold
